# Assays:
# [1] = target: T1, human TRPV1 (Homo sapiens (Human), UniProt Q8NER1); assay: Acid Activation Assay (pH 5.0, intracellular Ca2+, FLIPR); assay type: cell-based; conditions: percentage of the maximal pH 5.0-induced response remaining; recombinant HEK293 hTRPV1 cells; maximum concentration tested 37.5 μM
# Summary of the method: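 Readout: peak [Ca2+]i fluorescence over baseline on FLIPR, expressed as percentage remaining of the maximal pH 5.0-evoked signal. Stable hTRPV1-HEK293 cells with Calcium-4 dye received compound (12 half-log concentrations, maximum 37.5 μM) 3 min before acidic pH 5.0 buffer.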
# [2] = system: rats; assay: Rat acute capsaicin-induced flinching behavior; assay type: in vivo; conditions: 1 h, oral dose given as 100 nmol/kg, capsaicin 2.5 μg into hind paw one hour after compound, five minute observation, relative to control-treated animals, read-out: % effect (percent reduction in the number of flinching behaviors)
# Experimental: Rats were placed in individual observation cages. Following an acclimation period of 30 minutes, selected compounds were administered orally at a dose of 100 nmol/kg in a vehicle (10% ethanol/20% Tween 80/70% polyethylene glycol-400) at a volume of 2 mL/kg. One hour after administration of the compound, 2.5 μg of capsaicin in a 10 μL solution of 10% ethanol/90% hydroxypropyl-β-cyclodextrin was injected subcutaneously into the dorsal aspect of the right hind paw. The observation cage was then suspended above mirrors in order to facilitate observation. […] The number of flinching behaviors of the injured paw was recorded during the five minute observation period (Gilchrist, H. D.; Allard, B. L.; Simone, D. A.; Enhanced withdrawal responses to heat and mechanical stimuli following intraplantar injection of capsaicin in rats. Pain, 1996, 67, 179-188). The percent reduction in the number of flinching behaviors produced from oral administration of the test compounds relative to control-treated animals (% effect) is reported in Table 2.
# [3] = target: T1, human TRPV1; assay: Capsaicin Activation Assay (intracellular Ca2+, FLIPR); assay type: cell-based; conditions: recombinant HEK293 cells expressing hTRPV1, 50 nM capsaicin
# Summary of the method: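 Ca2+ fluorescence was recorded by FLIPR every 1 to 5 seconds in HEK293 cells, clonally selected for stable human TRPV1 expression and plated one day ahead. Test compounds came as serial dilutions of 10 mM DMSO stocks.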
# [4] = system: rats; assay: Sodium iodoacetate-induced knee joint osteoarthritic pain model (hind limb grip force); assay type: in vivo; conditions: rat, po, single acute dose, 1 hour after administration, 20 days after sodium iodoacetate, read-out: % effect (% return to normalcy of hind limb grip force)
# Experimental: Unilateral knee joint osteoarthritis was induced in the rats by a single intra-articular (i.a.) injection of sodium iodoacetate (3 mg in 0.05 mL sterile isotonic saline) into the right knee joint cavity under light isoflurane anesthesia using a 26 G needle. […] Pain behavioral assessment of hind limb grip force was conducted by recording the maximum compressive force exerted on the hind limb strain gauge setup, in a commercially available grip force measurement system (Columbus Instruments, Columbus, Ohio). The grip force data was converted to a maximum hindlimb cumulative compressive force (CFmax) (gram force)/kg body weight for each animal. The analgesic effects of test compounds were determined 20 days following the i.a. injection of sodium iodoacetate. The vehicle control group for each compound being tested was assigned 0% whereas the age matched naïve group was assigned as being 100% (normal). The % effect for each dose group was then expressed as % return to normalcy compared to the naïve group. Test compounds were administered orally in 10% ethanol/20% Tween 80/70% polyethylene glycol-400 vehicle at a volume of 2 mL/kg. The assessment of the analgesic effects of test compounds was made 1 hour following oral administration. The assessment of the analgesic effects of test compounds can be made following a single dose or following repeated administration wherein the frequency of dosing is 1 to 2 times daily. The duration of such repeated daily dosing may last for any time greater than one day. A typical duration of repeated daily dosing is about 5 days to about 12 days.
# [5] = system: rats; assay: Rat tail immersion assay of noxious thermosensation; assay type: in vivo; conditions: morphine 6 mg/kg i.p. in saline, 55° C. water bath, relative to vehicle control
# Experimental: Compounds were tested for their effects on noxious thermosensation using the tail immersion assay. Testing was performed one hour following oral administration of 100 μmol/kg of the compound in 10% ethanol/20% Tween-80/70% PEG-400 (2 mL/kg). Mophine (6 mg/kg) was administered interperitoneally (i.p.) using saline (2 mL/kg) as the vehicle. For testing, a circulating water bath was heated to 55° C. Thirty to sixty minutes post dosing, the rats were handled for a few seconds to calm them down and then cupped with their back against the testers hand at a slight angle with head facing away from tester. With rat in one hand and a 0.01 second stopwatch in the other hand, the tail was quickly immersed 6-8 cm in water bath or to a distance leaving 2-3 cm of tail out of water. The timer was started simultaneously. When the rat flinched or attempted withdrawal, timer was immediately stopped and the rat's tail was quickly removed from water bath. This response latency (in seconds) was recorded. Process was repeated 3 times with 3-4 minutes between readings for a final average.
# For a given compound, a percent increase in the average response latency (in seconds) for tail withdrawal relative to a vehicle control was determined % increase=[(tc−tv)/tv]×100% […]
# Table 1 reports the % increase in tail withdrawal latency measured for the compounds tested. […]
# T1 sequence (Q8NER1 whole entry): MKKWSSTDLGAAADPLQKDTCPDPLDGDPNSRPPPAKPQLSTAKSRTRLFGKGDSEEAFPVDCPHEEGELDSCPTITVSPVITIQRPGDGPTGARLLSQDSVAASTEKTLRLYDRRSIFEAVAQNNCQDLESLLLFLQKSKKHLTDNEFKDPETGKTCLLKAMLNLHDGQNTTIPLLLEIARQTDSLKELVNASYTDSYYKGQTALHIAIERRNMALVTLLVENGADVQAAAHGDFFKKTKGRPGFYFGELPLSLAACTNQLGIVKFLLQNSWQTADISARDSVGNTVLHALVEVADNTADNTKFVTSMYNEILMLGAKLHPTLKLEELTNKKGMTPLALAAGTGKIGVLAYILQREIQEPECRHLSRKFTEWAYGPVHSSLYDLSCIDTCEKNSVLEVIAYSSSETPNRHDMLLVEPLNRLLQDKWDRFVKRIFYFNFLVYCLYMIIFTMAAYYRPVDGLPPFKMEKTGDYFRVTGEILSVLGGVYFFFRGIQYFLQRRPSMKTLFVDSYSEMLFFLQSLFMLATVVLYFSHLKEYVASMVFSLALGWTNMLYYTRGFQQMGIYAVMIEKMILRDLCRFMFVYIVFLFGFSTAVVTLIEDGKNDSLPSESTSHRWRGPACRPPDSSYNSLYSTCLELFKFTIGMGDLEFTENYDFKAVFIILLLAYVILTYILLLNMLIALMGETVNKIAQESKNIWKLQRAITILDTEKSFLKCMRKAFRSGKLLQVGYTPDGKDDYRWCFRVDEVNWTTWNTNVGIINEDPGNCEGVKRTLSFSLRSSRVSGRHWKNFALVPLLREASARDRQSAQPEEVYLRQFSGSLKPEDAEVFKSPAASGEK
smiles,measurement,setting,value
"CN1Cc2ccc(NC(=O)N[C@@H]3C[C@](C)(C(F)(F)F)Oc4ccccc43)cc2NC1=O [Example 18, 1-(3-methyl-2-oxo-1,2,3,4-tetrahydroquinazolin-7-yl)-3-[(2R,4R)-2-methyl-2-(trifluoromethyl)-3,4-dihydro-2H-chromen-4-yl]urea]",human TRPV1 H^+ (max % remain),[1],51%
same,inhibition in vivo at 0.1 µmol/kg,[2],64%
same,IC50,[3],0.048 µM
same,inhibition in vivo at 13 mg/kg,[4],62%
"CN1C(=O)CCc2ccc(NC(=O)N[C@@H]3CCOc4cc(C(F)(F)F)ccc43)cc21 [Example 37, 1-(1-methyl-2-oxo-1,2,3,4-tetrahydroquinolin-7-yl)-3-[(4R)-7-(trifluoromethyl)-3,4-dihydro-2H-chromen-4-yl]urea]",human TRPV1 H^+ (max % remain),[1],60%
same,inhibition in vivo at 0.1 µmol/kg,[2],78%
same,IC50,[3],0.05 µM
same,inhibition in vivo at 13 mg/kg,[4],43%
"CC1(C)C[C@@H](NC(=O)Nc2ccc3c(c2)NC(=O)CO3)c2ccc(F)cc2O1 [Example 38, 1-[(4R)-7-fluoro-2,2-dimethyl-3,4-dihydro-2H-chromen-4-yl]-3-(3-oxo-3,4-dihydro-2H-1,4-benzoxazin-6-yl)urea]",human TRPV1 H^+ (max % remain),[1],92%
same,inhibition in vivo at 0.1 µmol/kg,[2],69%
same,IC50,[3],0.056 µM
same,inhibition in vivo at 10 mg/kg,[4],63%
"CN1CC[C@]23c4c5ccc(O)c4O[C@H]2[C@@H](O)C=C[C@H]3[C@H]1C5 [Morphine, morphine]",% Increase in tail withdrawal latency,[5],+++ (greater than or equal to 25% increase)
"CC1(C)C[C@@H](NC(=O)Nc2ccc3c(c2)NC(=O)CC3)c2ccc(F)c(F)c2O1 [Example 33, 1-[(4R)-7,8-difluoro-2,2-dimethyl-3,4-dihydro-2H-chromen-4-yl]-3-(2-oxo-1,2,3,4-tetrahydroquinolin-7-yl)urea]",human TRPV1 H^+ (max % remain),[1],42%
same,inhibition in vivo at 0.1 µmol/kg,[2],59%
same,IC50,[3],0.02 µM
same,inhibition in vivo at 10 mg/kg,[4],37%
